Activity calls are given as the source filed them. No cut-off for these calls is given here.
Columns and labels:
[1] = tested on: Mycobacterium tuberculosis; assay: Antimycobacterial activity against Mycobacterium tuberculosis H37Rv M47-4 harboring V681I mutant assessed as inhibition of bacterial growth incubated for 7 days by broth dilution method; format: functional, organism-based; conditions: time 7.0 day
[2] = tested on: Mycobacterium tuberculosis; assay: Antimycobacterial activity against Mycobacterium tuberculosis H37Rv M16-4 harboring V684A mutant assessed as inhibition of bacterial growth incubated for 7 days by broth dilution method; format: functional, organism-based; conditions: time 7.0 day
[3] = tested on: Mycobacterium tuberculosis; assay: Antimycobacterial activity against Mycobacterium tuberculosis H37Rv M47-2 harboring I244F mutant assessed as inhibition of bacterial growth incubated for 7 days by broth dilution method; format: functional, organism-based; conditions: time 7.0 day
[4] = tested on: Mycobacterium tuberculosis; assay: Antimycobacterial activity against Mycobacterium tuberculosis H37Rv M16-3 harboring V684G mutant assessed as inhibition of bacterial growth incubated for 7 days by broth dilution method; format: functional, organism-based; conditions: time 7.0 day
[5] = tested on: Mycobacterium tuberculosis; assay: Antimycobacterial activity against Mycobacterium tuberculosis H37Rv M47-3 harboring Ins710Q mutant assessed as inhibition of bacterial growth incubated for 7 days by broth dilution method; format: functional, organism-based; conditions: time 7.0 day
[6] = tested on: Mycobacterium tuberculosis; assay: Antimycobacterial activity against Mycobacterium tuberculosis H37Rv M16-5 harboring G253E mutant assessed as inhibition of bacterial growth incubated for 7 days by broth dilution method; format: functional, organism-based; conditions: time 7.0 day
[7] = tested on: Mycobacterium tuberculosis; assay: Antimycobacterial activity against Mycobacterium tuberculosis H37Rv M16-1 harboring V285A mutant assessed as inhibition of bacterial growth incubated for 7 days by broth dilution method; format: functional, organism-based; conditions: time 7.0 day
[8] = tested on: Mycobacterium tuberculosis; assay: Antimycobacterial activity against Mycobacterium tuberculosis H37Rv M47-1 harboring A700T mutant assessed as inhibition of bacterial growth incubated for 7 days by broth dilution method; format: functional, organism-based; conditions: time 7.0 day
[9] = tested on: Mycobacterium tuberculosis; assay: Antimycobacterial activity against Mycobacterium tuberculosis H37Rv M33-1 harboring V643M mutant assessed as inhibition of bacterial growth incubated for 7 days by broth dilution method; format: functional, organism-based; conditions: time 7.0 day
[10] = Ratio of MIC90 for antimycobacterial activity against Mycobacterium tuberculosis H37Rv M47-1 harboring mmpL3 G2098A/A700T mutant to MIC90 for antimycobacterial activity against wild type Mycobacterium tuberculosis H37Rv ATCC 27294; format: functional
[11] = Ratio of MIC90 for antimycobacterial activity against Mycobacterium tuberculosis H37Rv M16-3 harboring mmpL3 T2051G/V684G mutant to MIC90 for antimycobacterial activity against wild type Mycobacterium tuberculosis H37Rv ATCC 27294; format: functional
[12] = Ratio of MIC90 for antimycobacterial activity against Mycobacterium tuberculosis H37Rv M47-3 harboring mmpL3 Ins2128CAG/Ins710Q mutant to MIC90 for antimycobacterial activity against wild type Mycobacterium tuberculosis H37Rv ATCC 27294; format: functional
[13] = Ratio of MIC90 for antimycobacterial activity against Mycobacterium tuberculosis H37Rv M16-5 harboring mmpL3 G758A/G253E mutant to MIC90 for antimycobacterial activity against wild type Mycobacterium tuberculosis H37Rv ATCC 27294; format: functional
[14] = Ratio of MIC90 for antimycobacterial activity against Mycobacterium tuberculosis H37Rv M33-1 harboring mmpL3 G1927A/V643M mutant to MIC90 for antimycobacterial activity against wild type Mycobacterium tuberculosis H37Rv ATCC 27294; format: functional
[15] = Ratio of MIC90 for antimycobacterial activity against Mycobacterium tuberculosis H37Rv M16-2 harboring mmpL3 G758A/G253E mutant to MIC90 for antimycobacterial activity against wild type Mycobacterium tuberculosis H37Rv ATCC 27294; format: functional
[16] = Ratio of MIC90 for antimycobacterial activity against Mycobacterium tuberculosis H37Rv M16-1 harboring mmpL3 T854C/V258A mutant to MIC90 for antimycobacterial activity against wild type Mycobacterium tuberculosis H37Rv ATCC 27294; format: functional
[17] = Ratio of MIC90 for antimycobacterial activity against Mycobacterium tuberculosis H37Rv M16-4 harboring mmpL3 T2051C/V684A mutant to MIC90 for antimycobacterial activity against wild type Mycobacterium tuberculosis H37Rv ATCC 27294; format: functional
[18] = Ratio of MIC90 for antimycobacterial activity against Mycobacterium tuberculosis H37Rv M47-4 harboring mmpL3 G2041A/V681I mutant to MIC90 for antimycobacterial activity against wild type Mycobacterium tuberculosis H37Rv ATCC 27294; format: functional
[19] = Ratio of MIC90 for antimycobacterial activity against Mycobacterium tuberculosis H37Rv M47-2 harboring mmpL3 A730T/I244F mutant to MIC90 for antimycobacterial activity against wild type Mycobacterium tuberculosis H37Rv ATCC 27294; format: functional

Structure (SMILES) | Activity [1] | Activity [2] | Activity [3] | Activity [4] | Activity [5] | Activity [6] | Activity [7] | Activity [8] | Activity [9] | Ratio [10] | Ratio [11] | Ratio [12] | Ratio [13] | Ratio [14] | Ratio [15] | Ratio [16] | Ratio [17] | Ratio [18] | Ratio [19]
O=C(NC1CCCCCCC1)c1cc2ccccc2[se]1 | inactive | inactive | inactive | inactive | inactive | inactive | inactive | inactive | inactive | – | – | – | – | – | – | – | – | – | –
c1ccc2sc(CNC3CCCCCCC3)cc2c1 | – | – | – | – | – | – | – | – | – | 5 | 5 | 5 | 5 | 5 | 5 | 5 | 5 | 5 | 5
FC(F)(F)c1ccc2cc(CNC3CCCCCCC3)[nH]c2c1 | – | – | – | – | – | – | – | – | – | 5 | 5 | 5 | 5 | 5 | 5 | 5 | 5 | 5 | 5
O=C(NC1CCCCCCC1)c1cc2ccc(C(F)(F)F)cc2[nH]1 | – | – | – | – | – | – | – | – | – | 5 | 5 | 5 | 5 | 5 | 5 | 5 | 5 | 5 | 5
c1ccc2[se]c(CNC3CCCCCCC3)cc2c1 | inactive | inactive | inactive | inactive | inactive | inactive | inactive | inactive | inactive | – | – | – | – | – | – | – | – | – | –
O=C(NC1CCCCCCC1)c1cc2ccccc2s1 | inactive | inactive | inactive | inactive | inactive | inactive | inactive | inactive | inactive | – | – | – | – | – | – | – | – | – | –

Reference: ChEMBL document CHEMBL5226308, “Amide-Amine Replacement in Indole-2-carboxamides Yields Potent Mycobactericidal Agents with Improved Water Solubility” (ACS Med Chem Lett, 2021)
